Measurements from the supplement of paper PMC5908809.

Experiments:
[1] = system: normal primary NK cells, pool 3 (3 donors) (IL-2 2.5 ng/mL); assay: percent inhibition of viability; higher = more inhibition; conditions: 72 h
IMC-1 (IL-2 20 ng/mL) [2] = assay: as above; conditions: 72 h
[3] = system: normal primary NK cells, pool 1 (3 donors) (IL-2 2.5 ng/mL); assay: as above; conditions: 72 h
KHYG-1 (IL-2 2.5 ng/mL) [4] = assay: as above; conditions: 72 h
NK-YS (IL-2 2.5 ng/mL) [5] = assay: as above; conditions: 72 h
DERL-7 (IL-2 2.5 ng/mL) [6] = assay: as above; conditions: 72 h
[7] = system: normal primary NK cells, pool 1 (3 donors), resting (IL-2 0 ng/mL); assay: as above; conditions: 72 h
KAI3 (IL-2 2.5 ng/mL) [8] = assay: as above; conditions: 72 h
NK-92 (IL-2 2.5 ng/mL) [9] = assay: as above; conditions: 72 h
YT (IL-2 2.5 ng/mL) [10] = assay: as above; conditions: 72 h
[11] = system: normal primary NK cells, pool 2 (3 donors) (IL-2 2.5 ng/mL); assay: as above; conditions: 72 h
NKL (IL-2 2.5 ng/mL) [12] = assay: as above; conditions: 72 h
SNK-6 (IL-2 2.5 ng/mL) [13] = assay: as above; conditions: 72 h
[14] = system: normal NK cells expanded with K562-aAPC; assay: drug sensitivity score (DSS) (DSS units); higher = more sensitive; extreme values may be limits of the assay; conditions: 72 h; IL-2 2.5 ng/mL
Description: (§1)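 Drug sensitivity and resistance testing on K562-aAPC-expanded normal NK cells: 5 concentrations (10-fold steps over a 10,000-fold range), 72 h at 37 °C, viability by CellTiter-Glo normalised to DMSO and benzethonium chloride controls; DSS from the fitted curve.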

[15] = system: normal NK cells expanded with K562-aAPC; assay: percent inhibition of viability; higher = more inhibition; conditions: 72 h, IL-2 2.5 ng/mL
Description: as §1

[16] = system: normal primary NK cells, pool 3 (3 donors) (IL-2 2.5 ng/mL); assay: drug sensitivity score (DSS) (DSS units); higher = more sensitive; extreme values may be limits of the assay; conditions: 72 h
IMC-1 (IL-2 20 ng/mL) [17] = assay: as above; conditions: 72 h
[18] = system: normal primary NK cells, pool 1 (3 donors) (IL-2 2.5 ng/mL); assay: as above; conditions: 72 h
KHYG-1 (IL-2 2.5 ng/mL) [19] = assay: as above; conditions: 72 h
NK-YS (IL-2 2.5 ng/mL) [20] = assay: as above; conditions: 72 h
DERL-7 (IL-2 2.5 ng/mL) [21] = assay: as above; conditions: 72 h
[22] = system: normal primary NK cells, pool 1 (3 donors), resting (IL-2 0 ng/mL); assay: as above; conditions: 72 h
KAI3 (IL-2 2.5 ng/mL) [23] = assay: as above; conditions: 72 h
NK-92 (IL-2 2.5 ng/mL) [24] = assay: as above; conditions: 72 h
YT (IL-2 2.5 ng/mL) [25] = assay: as above; conditions: 72 h
[26] = system: normal primary NK cells, pool 2 (3 donors) (IL-2 2.5 ng/mL); assay: as above; conditions: 72 h
NKL (IL-2 2.5 ng/mL) [27] = assay: as above; conditions: 72 h
SNK-6 (IL-2 2.5 ng/mL) [28] = assay: as above; conditions: 72 h

Nc1nc2[nH]cnc2c(=S)[nH]1 [Thioguanine] (max concentration tested 10000 nM)
percent inhibition of viability [%]
Conditions	1 nM	10 nM	100 nM	1000 nM	10000 nM
DERL-7 (IL-2 2.5 ng/mL) [6]	-5.49	1.22	-5.6	8.62	87.2
IMC-1 (IL-2 20 ng/mL) [2]	-5.55	-1.21	-1.21	33.3	97.2
KAI3 (IL-2 2.5 ng/mL) [8]	-7.74	-2.97	-0.62	15.1	78.8
KHYG-1 (IL-2 2.5 ng/mL) [4]	-13.1	-8.14	-0.41	99.5	106
NK-92 (IL-2 2.5 ng/mL) [9]	-10.2	-5.6	17.5	52.7	98.4
NK-YS (IL-2 2.5 ng/mL) [5]	-7.28	-5.53	13.5	84.7	95.8
NKL (IL-2 2.5 ng/mL) [12]	-14	-21.1	1.79	26.9	93.4
SNK-6 (IL-2 2.5 ng/mL) [13]	-10.4	-12.3	-12.4	52.4	96.7
YT (IL-2 2.5 ng/mL) [10]	-6.35	-2.99	5.94	87.9	105
[1]	-3.74	-0.43	9.27	10.8	44
[3]	2.84	12.9	10.3	6.9	52.7
[7]	1.38	16.6	9.25	15.6	37.5
[11]	-0.91	-2.84	9.06	9.05	55
[15]	-4.14	-5.02	-5.79	6.11	56.7

Conditions	drug sensitivity score
DERL-7 (IL-2 2.5 ng/mL) [21]	6.23
IMC-1 (IL-2 20 ng/mL) [17]	10
KAI3 (IL-2 2.5 ng/mL) [23]	6.83
KHYG-1 (IL-2 2.5 ng/mL) [19]	17.9
NK-92 (IL-2 2.5 ng/mL) [24]	12.4
NK-YS (IL-2 2.5 ng/mL) [20]	17.2
NKL (IL-2 2.5 ng/mL) [27]	9.15
SNK-6 (IL-2 2.5 ng/mL) [28]	11.7
YT (IL-2 2.5 ng/mL) [25]	16.8
[14]	4.06
[16]	3.64
[18]	3.98
[22]	4.42
[26]	4.48

CO[C@H]1C[C@@H]2CC[C@@H](C)[C@@](O)(O2)C(=O)C(=O)N2CCCC[C@H]2C(=O)O[C@H]([C@H](C)C[C@@H]2CC[C@@H](OP(C)(C)=O)[C@H](OC)C2)CC(=O)[C@H](C)/C=C(\C)[C@@H](O)[C@@H](OC)C(=O)[C@H](C)C[C@H](C)/C=C/C=C/C=C/1C [Ridaforolimus] (max concentration tested 100 nM)
percent inhibition of viability [%]
Conditions	0.01 nM	0.1 nM	1 nM	10 nM	100 nM
DERL-7 (IL-2 2.5 ng/mL) [6]	-15.4	2.83	28.9	51.2	57.3
IMC-1 (IL-2 20 ng/mL) [2]	-3.33	-2.56	-12.9	-45.3	-38.3
KAI3 (IL-2 2.5 ng/mL) [8]	-4.12	-7.54	27.9	44	48.8
KHYG-1 (IL-2 2.5 ng/mL) [4]	-5.83	-9.85	0.66	26.3	51.1
NK-92 (IL-2 2.5 ng/mL) [9]	-28.6	-5.36	-5.98	12.4	39
NK-YS (IL-2 2.5 ng/mL) [5]	-0.81	5.33	44.5	49.8	54.8
NKL (IL-2 2.5 ng/mL) [12]	-1.33	21.2	50.1	55	58.3
SNK-6 (IL-2 2.5 ng/mL) [13]	-5.16	-2.57	46.2	46	55
YT (IL-2 2.5 ng/mL) [10]	-4.71	-6.15	16.4	48.4	45.6
[1]	-5.53	6.52	5.98	8.12	11
[3]	-8.79	8.41	13.3	20.3	11.8
[7]	-5.23	14.6	24.1	30.7	28.2
[11]	-12.7	6.23	9.36	16.1	19.1
[15]	-10	-8.61	-0.94	10.6	16.8

Conditions	drug sensitivity score
DERL-7 (IL-2 2.5 ng/mL) [21]	13.3
IMC-1 (IL-2 20 ng/mL) [17]	0
KAI3 (IL-2 2.5 ng/mL) [23]	12.4
KHYG-1 (IL-2 2.5 ng/mL) [19]	5.97
NK-92 (IL-2 2.5 ng/mL) [24]	3.73
NK-YS (IL-2 2.5 ng/mL) [20]	16
NKL (IL-2 2.5 ng/mL) [27]	19.2
SNK-6 (IL-2 2.5 ng/mL) [28]	15.6
YT (IL-2 2.5 ng/mL) [25]	11.2
[14]	1.24
[16]	0.06
[18]	3.96
[22]	9.48
[26]	2.58

CNC(=O)c1ccc(-c2cnc3ncc(Cc4ccc5ncccc5c4)n3n2)cc1F [NVP-INC280] (max concentration tested 1000 nM)
percent inhibition of viability [%]
Conditions	0.1 nM	1 nM	10 nM	100 nM	1000 nM
DERL-7 (IL-2 2.5 ng/mL) [6]	-5.28	4.26	-9.16	-6.92	-4.89
IMC-1 (IL-2 20 ng/mL) [2]	0.35	-0.99	7.3	10.2	14.7
KAI3 (IL-2 2.5 ng/mL) [8]	-3.13	-7.87	2.81	8.6	10.3
KHYG-1 (IL-2 2.5 ng/mL) [4]	0.53	0.71	6.28	8.45	7.71
NK-92 (IL-2 2.5 ng/mL) [9]	-4.47	-11.1	1.26	-6.37	7.6
NK-YS (IL-2 2.5 ng/mL) [5]	-3.18	-2.55	2.09	4.91	7.49
NKL (IL-2 2.5 ng/mL) [12]	-14.8	-12	-3.62	-0.32	1.94
SNK-6 (IL-2 2.5 ng/mL) [13]	1.66	-4.69	8.68	23.7	31.8
YT (IL-2 2.5 ng/mL) [10]	-0.04	-0.12	2.87	3.88	14.8
[1]	-4.63	-9.7	-8.57	-10.9	-0.53
[3]	-3.26	-0.85	-0.05	-8.05	-1.86
[7]	-4.36	11.4	-16.1	-15.8	-5.95
[11]	-5.16	-9.82	0.45	-1.98	7.71
[15]	3.07	-1.65	0.35	12.4	9.59

Conditions	drug sensitivity score
DERL-7 (IL-2 2.5 ng/mL) [21]	0
IMC-1 (IL-2 20 ng/mL) [17]	0.81
KAI3 (IL-2 2.5 ng/mL) [23]	0.03
KHYG-1 (IL-2 2.5 ng/mL) [19]	0
NK-92 (IL-2 2.5 ng/mL) [24]	0
NK-YS (IL-2 2.5 ng/mL) [20]	0
NKL (IL-2 2.5 ng/mL) [27]	0
SNK-6 (IL-2 2.5 ng/mL) [28]	4.62
YT (IL-2 2.5 ng/mL) [25]	0.42
[14]	0.67
[16]	0
[18]	0
[22]	0
[26]	0
